The nature of data set [1]: Chemical stability in TRIS buffers at pH 7.4 at 37 C was determined. It is filed as physicochemical. Particulars: TRIS buffer.
A short description of data set [2]: Chemical stability in phosphate buffers at pH 7.4 at 37 C was determined. The following applies: phosphate buffer. The class given is physicochemical.
The nature of data set [3]: Half-life in 4% cornea homogenate at 37 C (n = 3). The class given is ADME, tissue-based.
A short description of data set [4]: Half-life in 10% liver homogenate at 37 C (n = 3). The class given is ADME, tissue-based.
A short description of data set [5]: Distribution coefficients at 25 C in a 1-octanol-TRIS buffer. The class given is physicochemical.
In data set [6] the test system is alkaline phosphatase. Briefly: Half-life in alkaline phosphatase solution at 37 C (n = 2). The class given is ADME.
Data set [7] can be described thus: Aqueous solubility of the phosphate in TRIS buffers at pH 7.4 at 37 C was determined. It is filed as physicochemical. The following applies: TRIS buffer.

With `CCCCC/C=C\C/C=C\C/C=C\C/C=C\CCCCOC(CO)COP(=O)(O)O` (stereo not drawn), the half-life is 216 h in data set [1]; 17.9 days in data set [2]; 18.1 min in data set [3]; 7.1 min in data set [4]; 4.6 min in data set [6]. Moreover, the logD in data set [5] amounted to 1.98. Besides, in data set [7], the solubility is more than 5000 µg/mL.

Turning to `CCCCC/C=C\C/C=C\C/C=C\C/C=C\CCCCOC(CO)CO`, the solubility in data set [7] is less than 0.1 µg/mL.

In the case of `CCCCC/C=C\C/C=C\C/C=C\C/C=C\CCCCOC(COP(=O)(O)O)COP(=O)(O)O`, the half-life in data set [3] is 17.2 min; in data set [4] it was 6.4 min; in data set [6], 1.6 min. The logD in data set [5] is 0.65. The solubility in data set [7] was more than 5000 µg/mL.

As a reminder, the half-life is the time in which the quantity being followed falls by half. A low value points to rapid decline. As usually defined, the logD is lipophilicity at a set pH, counting ionised and neutral species. Usually solubility stands for how much of the substance goes into solution per volume. A lower solubility goes with a poorly soluble substance.

Values taken from ChEMBL document CHEMBL1146000, “Synthesis, in vitro evaluation, and intraocular pressure effects of water-soluble prodrugs of endocannabinoid noladin ether” (J Med Chem, 2003).
